Source: PubChem BioAssay AID1963840 (Molecular Pharmacology Branch, DTP, NCI, 2024)

Test system: 695427-040-R-J1-PDC complex spheroid viability
Assay: Anticancer human tumor 695427-040-R-J1-PDC patient-derived colon adenocarcinoma cell line growth inhibition [POLQ]
Settings: for IC50: curve of first compound; for viability, T/C: stronger effect = lower value
Summary of the method: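 Three-cell-type spheroids modelling solid tumor plus stroma served as the readout system; POL inhibitors were tested individually and in combination, concentration ranges set by clinical Cmax where known.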

[1] = second compound 0.0316 µM, first compound 0.0316 µM
[2] = second compound 0.0316 µM, first compound 0.1 µM
[3] = second compound 0.1 µM, first compound 0.0316 µM
[4] = second compound 0.1 µM, first compound 0.1 µM
[5] = second compound 0.316 µM, first compound 0.0316 µM
[6] = second compound 0.316 µM, first compound 0.1 µM
[7] = second compound 1 µM, first compound 0.0316 µM
[8] = second compound 1 µM, first compound 0.1 µM
[9] = second compound 3.16 µM, first compound 0.0316 µM
[10] = second compound 3.16 µM, first compound 0.1 µM
[11] = second compound 10 µM, first compound 0.0316 µM
[12] = second compound 10 µM, first compound 0.1 µM
[13] = second compound 0.0316 µM, first compound 0.000316 µM
[14] = second compound 0.0316 µM, first compound 0.001 µM
[15] = second compound 0.0316 µM, first compound 0.00316 µM
[16] = second compound 0.0316 µM, first compound 0.01 µM
[17] = second compound 0.1 µM, first compound 0.000316 µM
[18] = second compound 0.1 µM, first compound 0.001 µM
[19] = second compound 0.1 µM, first compound 0.00316 µM
[20] = second compound 0.1 µM, first compound 0.01 µM
[21] = second compound 0.316 µM, first compound 0.000316 µM
[22] = second compound 0.316 µM, first compound 0.001 µM
[23] = second compound 0.316 µM, first compound 0.00316 µM
[24] = second compound 0.316 µM, first compound 0.01 µM
[25] = second compound 1 µM, first compound 0.000316 µM
[26] = second compound 1 µM, first compound 0.001 µM
[27] = second compound 1 µM, first compound 0.00316 µM
[28] = second compound 1 µM, first compound 0.01 µM
[29] = second compound 3.16 µM, first compound 0.000316 µM
[30] = second compound 3.16 µM, first compound 0.001 µM
[31] = second compound 3.16 µM, first compound 0.00316 µM
[32] = second compound 3.16 µM, first compound 0.01 µM
[33] = second compound 10 µM, first compound 0.000316 µM
[34] = second compound 10 µM, first compound 0.001 µM
[35] = second compound 10 µM, first compound 0.00316 µM
[36] = second compound 10 µM, first compound 0.01 µM
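Note: spheroids exposed to compounds for seven days.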
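Throughout, for viability, T/C: 100% = DMSO vehicle control viability.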

CNCc1ccc(-c2[nH]c3cc(F)cc4c3c2CCNC4=O)cc1 + Nc1ccc(C#CCN(C(=O)Cc2ncc(C(F)(F)F)cc2C(F)(F)F)c2ccc(F)cc2)nn1
IC50 (second compound 0.0316 µM): > 10000 nM | IC50 (second compound 0.1 µM): > 10000 nM | IC50 (second compound 0.316 µM): > 10000 nM | IC50 (second compound 1 µM): > 10000 nM | IC50 (second compound 3.16 µM): > 10000 nM | IC50 (second compound 10 µM): > 10000 nM | viability, T/C [1]: 101% | viability, T/C [2]: 101% | viability, T/C (second compound 0.0316 µM, first compound 0.316 µM): 106% | viability, T/C (second compound 0.0316 µM, first compound 1 µM): 108% | viability, T/C (second compound 0.0316 µM, first compound 3.16 µM): 110% | viability, T/C (second compound 0.0316 µM, first compound 10 µM): 107% | viability, T/C [3]: 114% | viability, T/C [4]: 110% | viability, T/C (second compound 0.1 µM, first compound 0.316 µM): 104% | viability, T/C (second compound 0.1 µM, first compound 1 µM): 104% | viability, T/C (second compound 0.1 µM, first compound 3.16 µM): 118% | viability, T/C (second compound 0.1 µM, first compound 10 µM): 109% | viability, T/C [5]: 119% | viability, T/C [6]: 102% | viability, T/C (second compound 0.316 µM, first compound 0.316 µM): 96.1% | viability, T/C (second compound 0.316 µM, first compound 1 µM): 104% | viability, T/C (second compound 0.316 µM, first compound 3.16 µM): 115% | viability, T/C (second compound 0.316 µM, first compound 10 µM): 104% | viability, T/C [7]: 117% | viability, T/C [8]: 94% | viability, T/C (second compound 1 µM, first compound 0.316 µM): 98.1% | viability, T/C (second compound 1 µM, first compound 1 µM): 103% | viability, T/C (second compound 1 µM, first compound 3.16 µM): 112% | viability, T/C (second compound 1 µM, first compound 10 µM): 107% | viability, T/C [9]: 103% | viability, T/C [10]: 111% | viability, T/C (second compound 3.16 µM, first compound 0.316 µM): 97.2% | viability, T/C (second compound 3.16 µM, first compound 1 µM): 112% | viability, T/C (second compound 3.16 µM, first compound 3.16 µM): 113% | viability, T/C (second compound 3.16 µM, first compound 10 µM): 118% | viability, T/C [11]: 105% | viability, T/C [12]: 98.6% | viability, T/C (second compound 10 µM, first compound 0.316 µM): 92.3% | viability, T/C (second compound 10 µM, first compound 1 µM): 105% | viability, T/C (second compound 10 µM, first compound 3.16 µM): 105% | viability, T/C (second compound 10 µM, first compound 10 µM): 102%

Cn1ncnc1[C@H]1c2n[nH]c(=O)c3cc(F)cc(c23)N[C@@H]1c1ccc(F)cc1 + COC1C(OC(N)=O)C(O)C(Oc2ccc3c(O)c(NC(=O)c4ccc(O)c(CC=C(C)C)c4)c(=O)oc3c2C)OC1(C)C
IC50 (second compound 0.0316 µM): > 100 nM | IC50 (second compound 0.1 µM): > 100 nM | IC50 (second compound 0.316 µM): > 100 nM | IC50 (second compound 1 µM): > 100 nM | IC50 (second compound 3.16 µM): > 100 nM | IC50 (second compound 10 µM): > 100 nM | viability, T/C [13]: 92% | viability, T/C [14]: 96.6% | viability, T/C [15]: 93.5% | viability, T/C [16]: 105% | viability, T/C [1]: 106% | viability, T/C [2]: 84.1% | viability, T/C [17]: 99.4% | viability, T/C [18]: 93.3% | viability, T/C [19]: 107% | viability, T/C [20]: 101% | viability, T/C [3]: 98.4% | viability, T/C [4]: 83.8% | viability, T/C [21]: 106% | viability, T/C [22]: 101% | viability, T/C [23]: 98.4% | viability, T/C [24]: 106% | viability, T/C [5]: 103% | viability, T/C [6]: 92.1% | viability, T/C [25]: 103% | viability, T/C [26]: 101% | viability, T/C [27]: 96.3% | viability, T/C [28]: 95.1% | viability, T/C [7]: 93.9% | viability, T/C [8]: 91% | viability, T/C [29]: 96.6% | viability, T/C [30]: 90.9% | viability, T/C [31]: 90.9% | viability, T/C [32]: 98.3% | viability, T/C [9]: 105% | viability, T/C [10]: 94.6% | viability, T/C [33]: 103% | viability, T/C [34]: 99.6% | viability, T/C [35]: 99% | viability, T/C [36]: 106% | viability, T/C [11]: 113% | viability, T/C [12]: 101%

CC[C@@]1(O)C(=O)OCc2c1cc1n(c2=O)Cc2cc3c(CN(C)C)c(O)ccc3nc2-1 + Cc1cccc(N(C)C(=O)C2C(O)CCN2c2nc(C)cc(C(F)(F)F)c2C#N)c1
IC50 (second compound 0.0316 µM): > 100 nM | IC50 (second compound 0.1 µM): > 100 nM | IC50 (second compound 0.316 µM): > 100 nM | IC50 (second compound 1 µM): > 100 nM | IC50 (second compound 3.16 µM): > 100 nM | IC50 (second compound 10 µM): > 100 nM | viability, T/C [13]: 110% | viability, T/C [14]: 98.7% | viability, T/C [15]: 104% | viability, T/C [16]: 94.5% | viability, T/C [1]: 99.4% | viability, T/C [2]: 88.5% | viability, T/C [17]: 109% | viability, T/C [18]: 98.5% | viability, T/C [19]: 94.7% | viability, T/C [20]: 104% | viability, T/C [3]: 97.5% | viability, T/C [4]: 88.7% | viability, T/C [21]: 99.1% | viability, T/C [22]: 95.9% | viability, T/C [23]: 98.2% | viability, T/C [24]: 91.5% | viability, T/C [5]: 101% | viability, T/C [6]: 87.3% | viability, T/C [25]: 98.2% | viability, T/C [26]: 93.4% | viability, T/C [27]: 97.5% | viability, T/C [28]: 97.1% | viability, T/C [7]: 93.7% | viability, T/C [8]: 86.9% | viability, T/C [29]: 92.4% | viability, T/C [30]: 98.5% | viability, T/C [31]: 91.7% | viability, T/C [32]: 98.4% | viability, T/C [9]: 101% | viability, T/C [10]: 81.7% | viability, T/C [33]: 85.6% | viability, T/C [34]: 89.4% | viability, T/C [35]: 104% | viability, T/C [36]: 90% | viability, T/C [11]: 87.5% | viability, T/C [12]: 77.7%
